Data set [1] can be described thus: Pharmacokinetic evaluation in rats. Type of data set: in vivo. As to conditions: Sprague-Dawley, rat, serum, male SD rats, single oral dose 3 mg/kg, in 30% PEG400; for CL/F: read-out: apparent clearance (converted); for AUC(0-inf): read-out: area under the curve (AUC0-∞); for half-life: read-out: half-life (T1/2) (converted). As to the method:
8 male Sprague-Dawley rats (7-8 weeks old and body weight about 210 g) were divided into two groups, 4 in each group (rat No.: control group was 13-16; experimental group was 9-12), and orally administrated a single dose at 3 mg/kg of either compound: (a) the undeuterated N-(4-chloro-3-(trifluoromethyl)phenyl)-N′-(4-(2-(N-methyl-aminoformyl)-4-pyridyloxy)phenyl)urea (control compound CM4306) or (b) N-(4-chloro-3-(trifluoromethyl)phenyl)-N′-(4-(2-(N-(methyl-d3)-aminoformyl)-4-pyridyloxy)phenyl)urea (Compound CM4307 of the invention) prepared in Example 1. The pharmacokinetics differences were compared.
The rats were fed with the standard feed, given water and chlordiazepoxide. Chlordiazepoxide was stopped at the last night before experiment, and given again two hours after the administration of the compound. The rats were fasted for 16 hours before the test. The compound was dissolved in 30% PEG400. The time for collecting orbital blood was 0.083, 0.25, 0.5, 1, 2, 4, 6, 8 and 24 hours after administrating the compounds.
The rats were anaesthetized briefly by inhaling ether. A 300 μL orbital blood sample was collected into the tubes containing a 30 μl 1% heparin saline solution. The tubes were dried overnight at 60° C. before being used. After the blood samples were sequentially collected, the rats were anaesthetized by ether and sacrificed.
After the blood samples were collected, the tubes were gently reversed at least five times immediately to mix the contents sufficiently, and placed on the ice. The blood samples were centrifuged at 4° C. at 5000 rpm for 5 minutes to separate the serum and red blood cells. 100 μL serum was removed to a clean plastic centrifugal tube by pipettor, and the name of the compound and time point were labeled on the tube. Serum was stored at −80° C. before LC-MS analysis.

The test system of data set [2] is Human Hepatocellular Carcinoma SMMC-7721. Nature of the data set: Inhibition of tumor growth of SMMC-7721 in nude mice xenograft model. Type of data set: in vivo, Balb/c nu/nu nude mice. As to conditions: 100 mg/kg po qd × 2 weeks. The protocol: 70 Balb/c nu/nu nude mice, 6 weeks old, female, were bought from Shanghai Experimental Animal Resource Center (Shanghai B&K Universal Group Limited).
SMMC-7721 cells were commercially available from Shanghai Institutes for Biological Science, CAS (Shanghai, China).
The establishment of tumor nude mice xenograft model: SMMC-7721 cells in logarithmic growth period were cultured. After cell number was counted, the cells were suspended in 1×PBS, and the number of the cell in suspension was adjusted to 1.5×10^7/ml. The tumor cells were inoculated under the skin of right armpit of nude mice with a 1 ml syringe, 3×10^6/0.2 ml/mice. 70 nude mice were inoculated in total.
When the tumor size reached 30-130 mm^3, 58 mice were divided randomly into different groups. […]
Animal body weight and tumor size were tested twice a week during the experiment. Clinical symptoms were recorded every day. At the end of the administration, the tumor size was recorded by taking pictures. […]
The formula for calculating the tumor volume (TV) is: TV=a×b^2/2, wherein a, b independently represent the length and the breadth of the tumor. The formula for calculating the relative tumor volume (RTV) is: RTV=Vt/V0, wherein V0 is the tumor volume at the beginning of the administration, and Vt is the tumor […] when measured. […]

Consider 2 compounds from patent US20130012548A1, “DEUTERIUM-SUBSTITUTED OMEGA-DIPHENYLUREA AND DERIVATIVES THEREOF AND PHARMACEUTICAL COMPOSITIONS COMPRISING THE COMPOUNDS” (SUZHOU ZELGEN BIOPHARMACEUTICAL CO., LTD., priority 2010, published 2013).

Take `CNC(=O)c1cc(Oc2ccc(NC(=O)Nc3ccc(Cl)c(C(F)(F)F)c3)cc2)ccn1` [CM4306, N-(4-chloro-3-(trifluoromethyl)phenyl)-N′-(4-(2-(N-methylaminoformyl)-4-pyridyloxy)phenyl)urea, reference compound]: in data set [1], the CL/F was 6.83 mL/min/kg, the AUC(0-inf) came out at 7330 ± 336 ng·h/mL and the half-life is 8.6 ± 1.4 h.
On to `[2H]C([2H])([2H])NC(=O)c1cc(Oc2ccc(NC(=O)Nc3ccc(Cl)c(C(F)(F)F)c3)cc2)ccn1` [CM4307, N-(4-chloro-3-(trifluoromethyl)phenyl)-N′-(4-(2-(N-(methyl-d3)aminoformyl)-4-pyridyloxy)phenyl)urea], for which the “increase of relative value of tumor inhibition compared with CM4306 (32.2%/19.6%−1)” value in data set [2] is “about 60%”. For the same compound, in data set [1], the CL/F was 4.58 mL/min/kg, the AUC(0-inf) was 11300 ± 2470 ng·h/mL and the half-life was 11.3 ± 2.1 h.
